Results on two molecules are retold here after patent publication US9737517B2, “Pharmaceutical use of hexahydro-dibenzo[a,g]quinolizine compounds” (SHANGHAI INSTITUTE OF MATERIA MEDICA, CHINESE ACADEMY OF …, priority 2013, dated 2017).

Structures are written as SMILES. Several values for one entry are separate records, joined by “and”; a condition that tells them apart may be missing. Identical values can stand only once. Like-named read-outs stand apart in the source and are kept apart here.

Broadly, the IC50 is the concentration that gives 50% inhibition. In general, bioavailability refers to the share of a dose that reaches the circulation, judged against a reference dose that is usually intravenous. Usually half-life stands for the time in which the quantity being followed falls by half. Broadly, the AUC(0-inf) is the area under the concentration-time curve extrapolated to infinity. In general, Cmax refers to the maximum level reached in the sampled fluid or tissue. As usually defined, the MRT is the average time that molecules of a dose stay in the body. The Tmax is the time at which the peak concentration occurs.

One series has as its target T1, α1A-AR (Homo sapiens, UniProt P35348).
T1 construct: expressed in transfected cells; host or cells: HEK293
T1 sequence (P35348 1-466): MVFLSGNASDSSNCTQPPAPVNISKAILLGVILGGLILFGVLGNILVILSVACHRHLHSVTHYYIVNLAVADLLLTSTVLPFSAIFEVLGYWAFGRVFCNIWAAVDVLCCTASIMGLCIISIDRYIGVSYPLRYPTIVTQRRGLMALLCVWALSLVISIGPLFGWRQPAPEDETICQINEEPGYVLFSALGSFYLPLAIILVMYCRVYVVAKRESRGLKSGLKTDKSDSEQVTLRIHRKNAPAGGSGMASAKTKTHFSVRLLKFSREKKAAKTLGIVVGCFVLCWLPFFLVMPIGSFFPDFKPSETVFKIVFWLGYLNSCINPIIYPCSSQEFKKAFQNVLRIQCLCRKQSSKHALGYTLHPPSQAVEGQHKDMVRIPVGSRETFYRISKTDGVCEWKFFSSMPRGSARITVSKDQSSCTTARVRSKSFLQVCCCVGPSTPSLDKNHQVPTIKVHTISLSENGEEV
The series can be described thus: Calcium mobilization (Fluo-4) antagonism of phenylephrine in HEK293 cells expressing α1A-AR/Gα16. The class given is cell-based. The settings on record: for IC50: HEK293 α1A-AR/Gα16, calcium mobilization, phenylephrine 30 nM; for α1B/α1A: ratio of cell IC50 values, calcium mobilization. On the procedure: HEK293 cells stably expressing α1A-AR/Gα16, α1B-AR/Gα16, α1D-AR/Gα16 were seeded in a 96-well plate, and cultured for 24 hours. Then the medium was removed and 40 μL Hank's balanced salt solution (HBSS: containing 5.4 mM KCl, 0.3 mM Na2HPO4, 0.4 mM KH2PO4, 4.2 mM NaHCO3, 1.3 mM CaCl2, 0.5 mM MgCl2, 0.6 mM MgSO4, 137 mM NaCl, 5.6 mM D-glucose, and 250 μM sulfinpyrazone, pH 7.4) containing 2 μM Fluo-4 AM was added into each well, and incubated at 37° C. for 45 min. Dye was removed and 50 μL of HBSS containing either test compound or 1% DMSO (negative control) was added. After incubation at room temperature for 10 min, Flex Station 3 microplate reader was used to read the value. At specified time points, 25 μL of agonist (phenylephrine, final concentration 30 nM) was dispensed into the well automatically using the reader and fluorescence intensity change of dye caused by intracellular calcium concentration change was detected at an excitation wavelength of 485 nm and an emission wavelength of 525 nm.
After incubation with different drugs, the reaction rate of cells to 1-AR agonist phenylephrine was calculated as follows: Reaction rate %=(D−B)/(S−B)*100%;
The reaction rate of the same drug at different doses was tested using GraphPad Prism software by non-linear regression analysis, and the dose-response curve was obtained and IC50 values was measured. Data were obtained from three separate experiments, and each experiment included three duplicate wells.
Background: Calcium flux is commonly read through the fluorescence of an indicator in the cells.

Series [1] is described as follows: Pharmacokinetics study in rats (gavage and intravenous). As to conditions: rat. It is filed as in vivo, SD rats. The procedure: Gavage administration to rats. 3 healthy SD rats (male, weighed 200-220 g) were fasted for 12 hours before the administration but were allowed to drink water. Compound DC037009 was formulated with 10% DMSO/10% Tween 80/80% saline and was administered by 20 mg/kg dose and the dosing volume was 10 mL/kg.
Intravenous administration to rats. 3 healthy SD rats (male, weighed 200-220 g) were fasted for 12 hours before the administration but were allowed to drink water. Compound DC037009 was formulated with 10% DMSO/10% Tween 80/80% saline and was administered via the rat tail vein injection by 10 mg/kg dose and the dosing volume was 5 mL/kg.
Intravenous administration: 5 min, 0.25, 0.5, 1.0, 2.0, 3.0, 5.0, 7.0, 9.0 and 24 hrs after administration.
At the above time points, 0.3 mL blood obtained from post-eye venous plexus of rat was set into a heparinized tube, which was 11000 rpm centrifuged for 5 min, and the plasma was separated and frozen at −20° C. in a refrigerator.

A short description of series [2]: In vitro metabolism in monkey liver microsomes. It is filed as in vitro ADME. The procedure: (§1) The total volume of each incubation system was 200 μL, and the medium was 100 mM phosphate buffer solution (PBS, pH7.4) comprising a final concentration of 3 μM DC037009 and 2 mM NADPH. A37° C. water bath was used for incubation. After 3 minutes of pre-incubation, various liver microsomes protein were added into the buffer-substrate-cofactors mixture to start reaction. The concentration of liver microsomal protein of various species was 1.0 mg/mL. After reacting 60 min, the reaction was terminated with isovolumetric ice-cold acetonitrile. The total volume of blank was 200 μL, and the medium was 100 mM phosphate buffer solution (PBS, pH 7.4), comprising a final concentration of 3 μM DC037009 and heat inactivated microsomal proteins. All incubation samples were double.
(§2) A 150 μL sample from each of double incubation samples was mixed. A 300 μL of acetonitrile was added, mixed by vortexing for 1 min, and centrifuged 5 min (11000 rpm). The supernatant was placed in a 10 mL tube, and dried in 40° C. with nitrogen stream. The residue was dissolved with 100 μL methanol/water (1:9, v/v). A 10 μL sample was taken for UPLC/Q-TOF MS analysis.

Series [3] is described as follows: In vitro metabolism in dog liver microsomes. The class given is in vitro ADME. On the procedure:
as §1, §2
Background: Liver microsomes are a subcellular fraction often used to study metabolism.

A short description of series [4]: In vitro metabolism in mouse liver microsomes. The class given is in vitro ADME, mice. On the procedure:
as §1, §2

In a further series the target is hERG (Homo sapiens, UniProt Q12809). In words: Inhibition effect on hERG. The class given is cell-based. Background: Block of hERG is tested as a sign of cardiac risk.
Another series relates to SD rats. In words: Repetitive dose toxicity experiment on SD rats for 14 days. As to conditions: oral, 100 and 200 mg/kg for 14 days. It is filed as in vivo.
The mark [5] stands for this setting: male, SD, plasma, po, 20 mg/kg, gavage 20 mg/kg, individual animals 1-3.
Setting [6] is: male, SD, plasma, po, 20 mg/kg, gavage 20 mg/kg, mean of 3.
Where [7] appears, read: gavage 20 mg/kg, individual animals 1-3, 20 mg/kg.
The mark [8] stands for this setting: 3 μM DC037009, 1.0 mg/mL microsomal protein, NADPH, 60 min, UPLC/Q-TOF MS.

hERG, sequence (Q12809 whole entry): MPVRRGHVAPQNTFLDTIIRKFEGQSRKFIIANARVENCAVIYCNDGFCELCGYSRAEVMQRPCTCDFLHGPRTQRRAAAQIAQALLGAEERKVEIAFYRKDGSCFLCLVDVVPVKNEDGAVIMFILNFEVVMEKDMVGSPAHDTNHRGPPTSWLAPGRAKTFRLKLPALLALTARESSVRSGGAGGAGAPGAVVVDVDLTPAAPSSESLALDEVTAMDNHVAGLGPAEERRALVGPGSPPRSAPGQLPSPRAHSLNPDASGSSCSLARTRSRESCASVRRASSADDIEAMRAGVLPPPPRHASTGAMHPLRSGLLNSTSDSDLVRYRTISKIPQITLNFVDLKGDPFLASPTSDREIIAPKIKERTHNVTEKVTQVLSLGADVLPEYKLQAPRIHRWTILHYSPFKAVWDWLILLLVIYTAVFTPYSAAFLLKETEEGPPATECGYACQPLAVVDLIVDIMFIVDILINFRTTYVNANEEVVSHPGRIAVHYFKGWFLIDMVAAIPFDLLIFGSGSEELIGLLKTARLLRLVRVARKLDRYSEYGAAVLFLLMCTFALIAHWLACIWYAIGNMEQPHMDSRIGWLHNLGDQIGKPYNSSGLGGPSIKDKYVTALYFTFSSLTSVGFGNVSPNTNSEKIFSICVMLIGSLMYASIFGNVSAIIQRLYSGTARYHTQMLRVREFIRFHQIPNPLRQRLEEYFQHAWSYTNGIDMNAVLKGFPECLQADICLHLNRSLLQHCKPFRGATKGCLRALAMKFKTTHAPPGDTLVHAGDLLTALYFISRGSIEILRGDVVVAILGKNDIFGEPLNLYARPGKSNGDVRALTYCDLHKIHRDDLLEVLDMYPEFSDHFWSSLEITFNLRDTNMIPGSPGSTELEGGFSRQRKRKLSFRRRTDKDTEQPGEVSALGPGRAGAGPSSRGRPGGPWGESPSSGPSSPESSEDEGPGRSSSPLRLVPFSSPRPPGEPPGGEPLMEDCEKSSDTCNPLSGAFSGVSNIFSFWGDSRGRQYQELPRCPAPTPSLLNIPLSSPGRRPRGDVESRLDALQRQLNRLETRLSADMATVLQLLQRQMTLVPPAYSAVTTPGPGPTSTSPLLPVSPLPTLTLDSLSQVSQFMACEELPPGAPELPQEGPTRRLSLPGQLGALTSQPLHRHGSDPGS

In the case of `COc1cc2c(cc1OCc1ccccc1)C[C@H]1c3cc4c(cc3CCN1C2)OCO4` [DC037016], at α1A-AR, the half-inhibitory concentration (IC50) worked out at 34.8 nM and the α1B/α1A turned out to be 122.
As to `COc1cc2c(cc1OC)CN1CCc3cc4c(cc3[C@@H]1C2)OCO4` [DC037009, S-(−)-2,3-methylenedioxy-10,11-dimethoxy-5,8,13,13a-tetrahydro-6H-dibenzo[a,g]quinolizine], at α1A-AR, the 50% inhibitory concentration (IC50) came out at 29.8 nM and the α1B/α1A is recorded as 175. In series [1] (male, SD, plasma, oral, gavage 20 mg/kg versus intravenous 10 mg/kg), this molecule yielded a bioavailability of 34.2%. Further, the clearance in series [1] (male, SD, plasma, intravenous injection 10 mg/kg, read-out: plasma clearance rate CL (converted)) was 39.7 mL/min/kg. The Vd in series [1] (male, SD, plasma, intravenous injection 10 mg/kg, read-out: volume distribution stead state Vss) came to 3.49 ± 0.24 L/kg. In series [1] (male, SD, plasma, iv, 10 mg/kg, intravenous injection 10 mg/kg), this molecule had a half-life of 5.44 ± 0.85 h. The AUC0-t in series [1] (male, SD, plasma, iv, 10 mg/kg, intravenous injection 10 mg/kg, read-out: AUC0-t) was 4200 ± 141 ng·h/mL. Moreover, in series [1] (setting [5]), the AUC(0-inf) is 2630 ng·h/mL and the half-life was 4.2 h. Also, the AUC0-t in series [1] (male, SD, plasma, po, 20 mg/kg, gavage 20 mg/kg, individual animals 1-3, read-out: AUC0-t) was found to be 2570 ng·h/mL. Besides, in series [1] (male, SD, plasma, po, 20 mg/kg, gavage 20 mg/kg, individual animals 1-3, read-out: Cmax), the Cmax came to 289 ng/mL. Also, in series [1] (male, SD, plasma, po, 20 mg/kg, gavage 20 mg/kg, individual animals 1-3, read-out: MRT), the MRT came out at 6.45 h. The Tmax in series [1] (male, SD, plasma, po, 20 mg/kg, gavage 20 mg/kg, individual animals 1-3, read-out: Tmax) was 0.5 h. Further, in series [1] (setting [6]), the AUC(0-inf) stood at 2890 ng·h/mL and the half-life was 3.26 ± 0.82 h. For the same molecule, the AUC0-t in series [1] (male, SD, plasma, po, 20 mg/kg, gavage 20 mg/kg, mean of 3, read-out: AUC0-t) was found to be 2870 ± 798 ng·h/mL. Besides, the Cmax in series [1] (male, SD, plasma, po, 20 mg/kg, gavage 20 mg/kg, mean of 3, read-out: Cmax) was found to be 453 ± 147 ng/mL. In series [1] (male, SD, plasma, po, 20 mg/kg, gavage 20 mg/kg, mean of 3, read-out: MRT), the mean residence time MRT turned out to be 5.04 h. The Tmax in series [1] (male, SD, plasma, po, 20 mg/kg, gavage 20 mg/kg, mean of 3, read-out: Tmax) came out at 0.67 ± 0.29 h. Besides, in series [1] (setting [7]), the “AUC0-t” value was 2260 ng·h/mL and 3771 ng·h/mL; the “AUC0-∞” value is 2265 ng·h/mL and 3779 ng·h/mL; the maximum concentration (Cmax) was 494 ng/mL and 575 ng/mL; the “MRT” value was 4.00 h and 4.67 h. Also, in series [1] (setting [7]), the “Tmax” value was found to be 1.00 h; the “t1/2” value was 2.89 h and 2.70 h. Further, the “AUC0-t” value in series [1] (gavage 20 mg/kg, mean of 3, 20 mg/kg) came out at 2260 ng·h/mL. For the same molecule, the “Mass area, monkey” value in series [2] (setting [8]) is given as 1.6. Also, in series [2] (60 min incubation), the “kinds of metabolites detected in monkey liver microsome” value is on record as “seven” and the “metabolic stability in monkey liver microsome” value was “unstable”. Further, the “Mass area, dog” value in series [3] (setting [8]) is listed as 171.3. In addition, in series [3] (60 min incubation), the “kinds of metabolites detected in dog liver microsome” value is recorded as “six” and the “metabolic stability in dog liver microsome” value is listed as “in second place”. For the same molecule, the “Mass area, mice” value in series [4] (setting [8]) is on record as 6.3. Also, in series [4] (60 min incubation), the “kinds of metabolites detected in mouse liver microsome” value is “eight” and the “metabolic stability in mouse liver microsome” value is given as “unstable”. The “antagonistic activity to α1A-receptor relative to inhibitory activity on hERG” value at hERG was 272 folds. Besides, at hERG (hERG), the midpoint of inhibition, the IC50, lay at 8100 nM and the “Maximum inhibition rate (%)” value is reported as 84.7%. In the series with SD rats, the “changes of blood and coagulation indicators and serum biochemical indicators” value was “did not show any toxicological significance”; the death entry is “no death rat was found”; the gross anatomy entry was “no pathological changes related to administrated drug”.
